Laboratory results from patent publication US4929736A, “Latent isocynate derivatives useful for deactivating enzymes” (Board of Trustees of the Wichita State University, priority 1986, dated 1990).
“Also recorded” adds a separate entry of the source. Where two headings read alike, the source gives them in different places.

How the values were obtained:
[1] = biological target: Porcine pancreatic elastase (PPE) (Sus scrofa, UniProt P00772); experiment: Spectrophotometric assay of PPE inactivation (in vitro); assay type: biochemical; conditions: for kinact/KI: Table I azolides, read-out: Porcine pancreatic elastase k3 /Ki
Porcine pancreatic elastase (PPE), sequence (P00772 27-266): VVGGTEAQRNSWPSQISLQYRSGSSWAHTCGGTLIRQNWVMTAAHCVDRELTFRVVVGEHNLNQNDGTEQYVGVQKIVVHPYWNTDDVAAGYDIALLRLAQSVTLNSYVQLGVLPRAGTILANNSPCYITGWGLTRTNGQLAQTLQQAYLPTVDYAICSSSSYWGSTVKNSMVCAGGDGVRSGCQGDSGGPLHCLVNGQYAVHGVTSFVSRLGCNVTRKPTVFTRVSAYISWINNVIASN
Experimental: The enzyme assays used to evaluate the potency of the inhibitors in vitro were performed as follows: PPE was assayed spectrophotometrically at 347.5 nm with (tert-butoxycarbonyl)-alanyl-p-nitrophenol in 0.05 M phosphate buffer, pH 6.5, 25° C., or by using succinyl-L-trialanyl-p-nitroanilide in 0.1 M Tris buffer, pH 8.0, at 410 nm. HLE was assayed spectrophotometrically at 410 nm with succinyl-L-trialanyl-p-nitroanilide or methoxy succinyl ala-ala-pro-val-p-nitroanilide (As describe by K. Wakajima et al in the J. Biol. Chem, 254, 4027-4032 (1979) and T. Teshima et al, in J. Biol. Chem 257, 5085-5091 (1982). The potency of an inhibitor is determined by obtaining a kinetic determination of the bimolecular rate constant K3 /Ki (or Robsd /[I]). The HLE used in these studies may be obtained from Elastin Products, St. Louis, Mo.) in 0.1 M Tris buffer, pH 8.0.
(§1) The appropriate amount of inhibitor in acetonitrile was mixed with PPE in phosphate buffer solution and placed in a constant temperature bath. Aliquots were withdrawn at different time intervals and transferred to a cuvette containing 100 uL of substrate, 140 uL of acetonitrile, and 2 mL of phosphate buffer, pH 6.5. After incubating for 30 seconds, the absorbance change was monitored for two minutes at 347.5 nm. The inhibitor-to-enzyme ratios varied between 50 and 200, and the incubation intervals were shortened or lengthened depending upon the potency of the inhibitor. Controlled reactions for 100% PPE activity were run in the presence of acetonitrile. A similar procedure was followed for HLE.
(§2) The reaction of an irreversible inhibitor with PPE and HLE may be illustrated by the scheme shown below: [drawing 5] where EI is the noncovalently bound enzyme-inactivator complex and E-I is the final product with the inhibitor covalently bound to the enzyme. The kinetics data were analyzed according to known procedures. The apparent pseudo-first-order inactivation rate constants were determined from the slopes of semilogarithmic plots of enzymatic activity remaining versus time using the following equation: [formula] where Et /EO is the amount of active enzyme remaining after time "t". Inhibition is generally expressed in terms of k3 /Ki, M^-1 s^-1, wherein Ki is the disassociation constant for the enzyme inhibitor complex and k3 is a limiting rate constant for the irreversible loss of enzymatic activity.
Table I below illustrates the inhibition found with assays of nine amino-acid-derived azolides against PPE and HLE.

[2] = biological target: T1, Human leukocyte elastase (HLE) (Homo sapiens, UniProt P08246); experiment: Spectrophotometric assay of HLE inactivation (in vitro); assay type: biochemical
T1 construct: purchased Elastin Products, St. Louis, Mo
T1 sequence (P08246 30-267): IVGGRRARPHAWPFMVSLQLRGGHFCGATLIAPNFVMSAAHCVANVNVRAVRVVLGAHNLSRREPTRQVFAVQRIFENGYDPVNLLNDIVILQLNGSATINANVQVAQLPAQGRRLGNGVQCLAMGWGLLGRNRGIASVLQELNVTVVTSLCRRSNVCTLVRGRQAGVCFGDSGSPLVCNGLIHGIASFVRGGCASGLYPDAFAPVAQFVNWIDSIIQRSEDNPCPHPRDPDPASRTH
Experimental: as §1, with “The inhibitor-to-enzyme ratios varied between 50 and 200, and the incubation intervals were shortened or lengthened depending upon the potency of the inhibitor.” left out
as §2, with “"t".” for “"t". Inhibition is generally expressed in terms of k3 /Ki, M^-1 s^-1, wherein Ki is the disassociation constant for the enzyme inhibitor complex and k3 is a limiting rate constant for the irreversible loss of enzymatic activity.”
The assay procedure used was the procedure identified relative to the tests above in Table I.
(kobsd) were determined by plotting in [E]t /[E]o vs time.

PPE = conditions: cited from earlier work; for Irreversible inhibition of PPE (in words): 183rd ACS National Meeting, 1982
alpha-Chymotrypsin = alpha-Chymotrypsin (Bos taurus, UniProt P00766); experiment: Inactivation of chymotrypsin; assay type: biochemical; conditions: comparable conditions
[3] = Inactivation of S-ethylcysteine sulfonate salt by oxidants / hydrolysis in buffer; assay type: physicochemical
Excerpt: In addition, compound 3, Table VI, was exposed to oxidants in vitro and the rates of its inactivation with chloramine-T and H2 O2 compared to buffer alone are summarized in Table VII below. […] The observed rates of inhibitor inactivation are 6 to 12 fold smaller than the rate at which the inhibitor inactivates the enzyme.

[4] = Table I azolides, read-out: Human leukocyte elastase k3 /Ki

CCCCC(NC(=O)n1ccnc1)C(=O)OC (stereo not drawn) [Compound 9]
Inhibition of PPE (in words) [1]: little for PPE
Inhibition of HLE (in words) [2]: effective inhibitors; also recorded: avidity for HLE

COC(=O)[C@H](CC(C)C)NC(=O)n1ccnc1 [Compound 7, Table I]
kinact/KI [1]: 0.5 M⁻¹ s⁻¹
Inhibition of HLE (in words) [2]: highly effective

COC(=O)[C@H](NC(=O)n1ccnc1)C(C)C [Compound 4, Table I]
Irreversible inhibition of PPE (in words) (PPE): marginal activity

COC(=O)[C@H](NC(=O)n1ccnc1)C(C)C [Compound 4]
Inhibition of PPE (in words) [1]: no effect
Inhibition of HLE (in words) [2]: no effect

CCC[C@H](NC(=O)S(=O)(=O)O)C(=O)OC [Compound 4, Table II]
Inhibition of PPE (in words) [1]: no effect
kinact/KI ([2]; Table II monopotassium sulfonate salts, read-out: k2 /Ki (HLE)): 860 M⁻¹ s⁻¹
Inhibition of HLE (in words) ([2]; listed as L-norvaline sulfonate salt): very potent inhibitors; also recorded: effective inhibitors
Inhibition of chymotrypsin (in words) (alpha-Chymotrypsin): no effect

CCC[C@H](NC(=O)n1ccnc1)C(=O)OC [Compound 5]
Inhibition of PPE (in words) [1]: little for PPE
kinact/KI [1]: 6.3 M⁻¹ s⁻¹
Inhibition of HLE (in words) [2]: effective inhibitors; also recorded: avidity for HLE
kinact/KI [2, 4]: 500 M⁻¹ s⁻¹

CCSC[C@H](NC(=O)S(=O)(=O)O)C(=O)OC [Compound 3, Table VI]
kinact/KI ([2]; Table VI, sulfur-containing amino acid esters, read-out: kobsd /[I], inhibition of HLE): 1800 M⁻¹ s⁻¹
kobsd, inactivation of inhibitor ([3]; Chloramine T (0.06 mM), first line): 6.6 × 10^-4 sec ^-1
kobsd, inactivation of inhibitor ([3]; Chloramine T (0.06 mM), second line): 3.2 × 10^-3 sec ^-1
kobsd, inactivation of inhibitor ([3]; H2O2 (1 mM)): 1.2 × 10^-3 sec ^-1
kobsd, inactivation of inhibitor ([3]; Triss buffer, pH 8.0 (0.2 M)): 5.8 × 10^-4 sec ^-1
half life of hydrolysis in buffer solution ([3]; buffer, pH 8.0): twenty
scavenging of oxidants (in words) ([3]; chloramine-T and H2O2): scavenged by the inhibitor in a time dependent and efficient fashion
half life with addition of oxidants (in words) ([3]; chloramine-T, H2O2): shorter half lives

COC(=O)[C@@H](NC(=O)n1ccnc1)C(C)C [Compound 3, Table I]
kinact/KI [1]: 2.8 M⁻¹ s⁻¹
kinact/KI [2, 4]: 193 M⁻¹ s⁻¹
Inhibition of HLE (in words) ([2]; listed as L-valine azolide): highly effective
Irreversible inhibition of PPE (in words) (PPE): Particularly active

COC(=O)CNC(=O)n1ccnc1 [Compound 1]
Inhibition of PPE (in words) [1]: failed to deactivate
Inhibition of HLE (in words) [2]: failed to deactivate

CCC(C)[C@H](NC(=O)n1ccnc1)C(=O)OC (stereo partly drawn) [Compound 8, Table I]
kinact/KI [1]: 1 M⁻¹ s⁻¹

COC(=O)[C@@H](NC(=O)n1ccnc1)C(C)C [Compound 3]
Inhibition of PPE (in words) [1]: poor inhibitor; also recorded: little for PPE
Inhibition of HLE (in words) [2]: excellent inhibitor; also recorded: avidity for HLE

COC(=O)[C@H](CCSC)NC(=O)n1ccnc1 [N-(1H-imidazol-1-ylcarbonyl)-methionine methyl ester]
Inhibition of PPE (in words) [1]: unaffected
Inhibition of HLE (in words) [2]: remarkable specificity and high potency
Inhibition of HLE (in words) ([2]; listed as methionine azolide): highly effective

CCCCNC(=O)n1ccnc1 [n-butyl derivative]
Inhibition of PPE (in words) (PPE; Biochem. Biophys. Res. Commun. report (1980)): particularly capable of binding to the active site of the enzyme

CCCC(NC(=O)n1ccnc1)C(=O)OC (racemic) [DL-norvaline methyl ester derivative]
Irreversible inhibition of PPE (in words) (PPE): Particularly active

CCCCC(NC(=O)n1ccnc1)C(=O)OC (racemic) [Compound 9, Table I]
kinact/KI [1]: 2.2 M⁻¹ s⁻¹
kinact/KI [2, 4]: 167 M⁻¹ s⁻¹

COC(=O)[C@H](C)NC(=O)n1ccnc1 [Compound 2]
Inhibition of PPE (in words) [1]: marginal inhibitory activity
Inhibition of HLE (in words) [2]: marginal inhibitory activity

CCOC(=O)CNC(=O)n1ccnc1 [glycine ethel ester derivative]
Irreversible inhibition of PPE (in words) (PPE): inactive

Cc1ccc(S(=O)(=O)ON2C(=O)CCC2=O)cc1
kobsd /[I], inhibition of leukocyte elastase ([2]; Table V, succinimide derivatives): inactive

COC(=O)C(Cc1cccc(C(F)(F)F)c1)NC(=O)n1ccnc1 (stereo not drawn) [Compound 34]
kinact/KI ([2]; Table IV, derivatives of phenylalanine, read-out: kobsd /[I], inhibition of leukocyte elastase): 1100 M⁻¹ s⁻¹

O=C(NCc1cccc(C(F)(F)F)c1)S(=O)(=O)O [Compound 13, Table III]
kobsd /[I], inhibition of leukocyte elastase ([2]; Table III, inactive: no inhibition at 243fold excess of inhibitor over enzyme, 10min incubation): inactive
